Assay [1] deals with Madin-Darby canine kidney (MDCK) cells. The settings on record: cells lacking contact inhibition by action of HGF; cited from earlier work.
Assay [2] relates to LLC-PK1 cells. The settings on record: 1% DMSO, DMEM-HG, 0 day to third day. Here is the method: On each 6-well plate, 5×10^5 LLC-PK1 cells were seeded. […] Furthermore, two groups of the cells cultured in (4) a DMEM-HG medium and (5) a DMEM-HG medium containing 1% DMSO were checked. The cells on 0 day, the first day, the second day, and the third day after seeding were colored with trypan blue and then measured for number.

Assay [3] deals with LLC-PK1 cells. Conditions: DMEM medium containing 50 μg/ml U0126 for two weeks. An excerpt: In both groups, the medium was circulated outside the hollow fibers of the module in a closed system. […] On the fourth day after culture, three of the modules of each group were fixed with glutaraldehyde and were then observed in vertical cross section by scanning electron microscopy (SEM).

Assay [4] relates to LLC-PK1 cells. Here is the method: In lumens of hollow fibers made of an ethylene-vinyl alcohol (EVAL) copolymer, which forms membranes placed in mini-modules (a membrane area of 65 cm^2), 2×10^8 […] (LLC-PK1) cells, which were porcine proximal renal tubular epithelial cell lines, were seeded. The cells were cultured in such a manner that a DMEM-HG medium was circulated inside and outside the hollow fibers at a rate of 0.25 ml/min. In this operation, the transmembrane pressure was maintained at zero. […] The leakage of urea nitrogen, the leakage of creatinine, the amount of reabsorbed glucose, and the amount of reabsorbed Na^+ were measured for 24 hours.
Method of measuring absorption and leakage: the absorption and leakage are calculated using the following formula:
Absorption rate (leaking rate)=(C0×V0−CI×(VI−VR))/C2V2
wherein C0 represents the concentration of a substance in a discharged external solution, V0 represents the volume of the discharged external solution, CI represents the concentration of the substance in a fed external solution, VI represents the volume of the fed external solution, VR represents the volume of the external solution remaining outside the hollow fibers at the end of an experiment, C2 represents the concentration of the substance in a fed internal solution, and V2 represents the volume of the fed internal solution.

In assay [5] the test system is LLC-PK1 cells. Conditions: 50 μM U0126 and 1% DMSO in DMEM-HG, 0 day to sixth day.
Description: On each transwell filter unit, 2×10^6 Lewis-lung cancer porcine kidney (LLC-PK1) cells, which were cryopreserved porcine proximal renal tubular epithelial cell lines, were seeded. […] The LLC-PK1 cells on 0 day, the first day, the second day, the third day, and the sixth day after seeding were colored with trypan blue and then measured for number for each group. The LLC-PK1 cells were gently washed with a sterilized PBS solution containing no magnesium or calcium and were then trypsin-treated with 1 ml of a trypsin-EDTA solution at 37° C. for 15 minutes. The treated cells (1 ml) were added to 4 ml of DMEM, were colored with trypan blue, and were then measured for number with a hemocytometer. Measurement was performed three times for each group.
Assay [6] deals with ERK1/2.
Description: In each of 6-well plates, 5×10^5 LLC-PK1 cells were seeded. The cells were divided into three groups on the following day (0 day). […] Then the media (D) and (U) were replaced with a DMEM-HG medium. The cells of each group were further cultured for three days. The cells were subjected to Western blot analysis for ERK1/2 on 0 day, the first day, the second day, the third day, and the sixth day.
The cultured LLC-PK1 cells were used in the form of a cytolytic solution for Western blot analysis. The sampled cells of each group were rinsed with ice-chilled PBS and were then centrifuged at 4° C. for five minutes at 1500 rpm. The centrifugate was collected and then maintained at −80° C.
Proteins were taken from 50 μL of each of ice-chilled cytolytic solutions containing 20 mM Tris-HCl (pH 7.5), 150 mM NaCl, 1 mM Na2EDTA, 1 mM EGTA, 1% Triton, 2.5 mM sodium pyrophosphate, 1 mM β-glycerophosphate, 1 mM Na3VO4 (sodium orthovanadate), and 1 μg/ml leupeptin. The proteins were centrifuged at 4° C. for 15 minutes at 15000×g, whereby soluble proteins were extracted. The protein concentration of each cytolytic solution was measured with a protein assay kit (Protein Assay Rapid Kit; Wako, Osaka, Japan). […] Proteins (20 μg) in each LLC-PK1 cytolytic solution were analyzed with SDS-PAGE (polyacrylamide gel electrophoresis) using a 12.5% polyacrylamide gel (e-PAGEL; ATTO, Tokyo, Japan). […]
Assay [7] has as its system AP-1 transactivation. Conditions: cited from earlier work.
Assay [8] concerns MEN-1 and MEK-2. Conditions: cited from earlier work.
Setting [9] is: 50 μM U0126, days 3-4, mean ± SEM, n = 4.

The structures appear in SMILES notation. Like-named read-outs stand apart in the source and are kept apart here. Marks after values point to notes of the source that are not given here.

As for `COc1cccc(-c2cc(=O)c3ccccc3o2)c1N` [PD-98059], in assay [1], the “contact inhibition of MDCK cells” value is “restoring the contact inhibition”.

Turning to `N#CC(=C(N)Sc1ccccc1N)C(C#N)=C(N)Sc1ccccc1N` [U0126, 1,4-diamino-2,3-dicyano-1,4-bis[2-aminophenylthio]butadiene], in assay [2] (10 μM), the “change in number of LLC-PK1 cells” value was “not sufficiently prevented from increasing in number”. In addition, the “change in number of LLC-PK1 cells” value in assay [2] (30 μM) is reported as “clearly prevented from proliferating”. Further, the “change in number of LLC-PK1 cells” value in assay [2] (50 μM) is on record as “clearly prevented from proliferating”. Besides, in assay [3], the “maintenance of confluent monolayer in hollow fibers (SEM), FIG. 5 legend” value is “confluent monolayers are substantially maintained”. Moreover, in assay [4] (50 μM U0126), the “amount of reabsorbed Na+ compared with control group” value is given as “significantly greater”; the “amount of reabsorbed glucose compared with control group” value is on record as “greater than that in the control group, though there is no significant difference”; the “leakage of creatinine (Cr) compared with control group” value is “less than that in the control group, though there is no significant difference”; the “leakage of urea nitrogen (UN) compared with control group” value was “significantly less”. For the same molecule, in assay [4] (setting [9]), the “Leakage Cr” value came out at 3.3 ± 0.5%, the “Leakage UN” value is listed as 3.6 ± 0.7^b %, the “Reabsorption Glucose” value is reported as 63.9 ± 19.7 mg/day and the “Reabsorption Na+” value is on record as 1.26 ± 0.10^b mEq/day. Further, the “change in number of LLC-PK1 cells” value in assay [5] was “prevented from significantly increasing in number”. In assay [6] (50 μM U0126 and 1% DMSO, first, second and third day), the “activated ERK1/2” value was “suppressed”. For the same molecule, in assay [6] (sixth day, three days after removal of U0126), the “activated ERK1/2 after replacing the medium with U0126-free DMEM-HG” value was “Activated ERK1/2 is expressed”. In addition, the “contact inhibition of MDCK cells” value in assay [1] is “restoring the contact inhibition”. The AP-1 transactivation result in assay [7] was “suppressor of AP-1 transactivation”. Moreover, the “inhibition of MEK-1 and MEK-2” value in assay [8] is on record as “direct inhibition”.

Values taken from patent publication US20090209019A1, “Bioartificial Renal Tubule” (TOKAI UNIVERSITY EDUCATIONAL SYSTEM, priority 2006, published 2009).
